The values that follow come from patent US8802711B2, “TRPV1 antagonists” (AbbVie Inc., priority 2011, dated 2014).

Each structure is given as a SMILES string. pIC50: −log10 of the molar value. Read-outs that look alike come from different tables or passages of the source.

Experiment [1] concerns the target T1, human TRPV1 receptor (hTRPV1) (Homo sapiens (Human), UniProt Q8NER1). Put plainly: Capsaicin activation assay (FLIPR intracellular Ca2+). It counts as cell-based. The settings on record: inhibition of capsaicin-induced intracellular Ca2+ increase, read-out: hTRPV1 cap IC50. The gist of the method:
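Antagonism measured as [Ca2+]i fluorescence on FLIPR Tetra: compounds given 3 min ahead of capsaicin, added as 200 nM (4×), to dye-loaded hTRPV1-HEK293 cells. Response taken as baseline-subtracted peak, normalized to the 50 nM capsaicin control; 12-point one-third-log titrations.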

Experiment [2] concerns the target T1, human TRPV1 receptor (hTRPV1). Put plainly: Acid activation assay (pH 5.0, FLIPR intracellular Ca2+). The settings on record: 37.5 μM antagonist, percentage of the maximal pH 5.0-induced response remaining; for remaining activity at 37.5 µM: read-out: hTRPV1 H+ (max % remain). It counts as cell-based. The gist of the method: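 Antagonism of acid-evoked Ca2+ influx measured by FLIPR Calcium-4 fluorescence after a pH 5.0 DPBS/MES stimulus, with compounds preincubated 3 min over 12 half-log concentrations. Cells: stable hTRPV1-expressing 1321N1 line, dye-loaded 90–120 min in the dark at 25 °C.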

For the next experiment, the system named is Sprague-Dawley rats. Put plainly: Rat tail immersion assay (noxious thermosensation). It counts as in vivo. To be noted: for % Increase in tail withdrawal latency / change in vivo at 100 µmol/kg: rat, 100 μmol/kg oral, one hour post dosing, 55° C. water bath, relative to vehicle; for change in vivo at 100 µmol/kg: 1 h. On the procedure: Adult male Sprague-Dawley rats (250-300 g body weight, Charles River Laboratories, Portage, Mich.) were used. Animal handling and experimental protocols were approved by the Institutional Animal Care and Use Committee (IACUC) at Abbott Laboratories. For all surgical procedures, animals were maintained under isoflurane anesthesia (4-5% to induce, 1-3% to maintain), and the incision sites were sterilized using a 10% povidone-iodine solution prior to and after surgeries.
Compounds were tested for their effects on noxious thermosensation using the tail immersion assay. Testing was performed one hour following oral administration of 100 μmol/kg of the compound in 10% ethanol/20% Tween-80/70% PEG-400 (2 mL/kg). Morphine (6 mg/kg) was administered interperitoneally (i.p.) using saline (2 mL/kg) as the vehicle. For testing, a circulating water bath was heated to 55° C. Thirty to sixty minutes post dosing, the rats were handled for a few seconds to calm them down and then cupped with their back against the tester's hand at a slight angle with head facing away from the tester. With rat in one hand and a 0.01 second stopwatch in the other hand, the tail was quickly immersed 6-8 cm in the water bath or to a distance leaving 2-3 cm of tail out of water. The timer was started simultaneously. When the rat flinched or attempted withdrawal, timer was immediately stopped and the rat's tail was quickly removed from water bath. This response latency (in seconds) was recorded. Process was repeated 3 times with 3-4 minutes between readings and the average response latency was calculated.
For a given example, a percent increase in the average response latency (in seconds) for tail withdrawal relative to a vehicle control was determined. % increase=[(tc−tv)/tv]×100%
tc=response latency (in seconds) with oral dosing of compounds
tv=response latency (in seconds) with oral dosing of vehicle
The % increases in tail withdrawal latency relative to vehicle control are divided into the following categories: […]

Setting [3] is: Table 1, HEK293 cells expressing human TRPV1.
Where [4] appears, read: read-out: % Increase in tail withdrawal latency.

T1 sequence (Q8NER1 whole entry): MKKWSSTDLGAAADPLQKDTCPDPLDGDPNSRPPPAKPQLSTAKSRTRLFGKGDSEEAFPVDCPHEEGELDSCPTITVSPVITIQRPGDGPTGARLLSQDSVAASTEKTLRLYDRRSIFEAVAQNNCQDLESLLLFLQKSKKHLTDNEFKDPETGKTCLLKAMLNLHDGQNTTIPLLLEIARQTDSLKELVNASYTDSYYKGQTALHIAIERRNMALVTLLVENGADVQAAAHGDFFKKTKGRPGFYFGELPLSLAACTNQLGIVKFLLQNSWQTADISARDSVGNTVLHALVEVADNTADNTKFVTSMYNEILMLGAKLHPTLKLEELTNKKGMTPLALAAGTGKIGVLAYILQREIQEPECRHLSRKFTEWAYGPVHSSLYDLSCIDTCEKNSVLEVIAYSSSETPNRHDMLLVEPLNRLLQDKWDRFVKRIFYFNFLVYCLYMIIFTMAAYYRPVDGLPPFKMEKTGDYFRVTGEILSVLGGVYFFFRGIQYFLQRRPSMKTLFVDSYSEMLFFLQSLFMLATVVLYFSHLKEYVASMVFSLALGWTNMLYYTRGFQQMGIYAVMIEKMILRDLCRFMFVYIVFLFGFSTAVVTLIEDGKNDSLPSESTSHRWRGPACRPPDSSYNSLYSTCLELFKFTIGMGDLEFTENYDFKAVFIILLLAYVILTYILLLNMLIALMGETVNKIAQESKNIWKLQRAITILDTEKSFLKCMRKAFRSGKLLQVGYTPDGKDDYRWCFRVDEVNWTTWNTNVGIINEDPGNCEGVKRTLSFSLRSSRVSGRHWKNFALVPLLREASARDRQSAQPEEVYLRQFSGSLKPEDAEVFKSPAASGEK

With `O=C(Nc1cccc2c1C[C@@H](O)C2)N[C@@H]1CC[C@H](c2ccccc2)C1` [Example 2, 1-[(2S)-2-hydroxy-2,3-dihydro-1H-inden-4-yl]-3-[(1R,3S)-3-phenylcyclopentyl]urea], the pIC50 in experiment [1] (setting [3]) and in experiment [1] (Table 2) was 7.54 in each case. Also, the remaining activity at 37.5 µM in experiment [2] (Table 1) and in experiment [2] (Table 2) was 40% in each case. For the same compound, the “% Increase in tail withdrawal latency” value with Sprague-Dawley rats is recorded as “−”.

Take `O=C(Nc1cccc2[nH]ncc12)N[C@@H]1CC[C@H](c2ccccc2)C1` [Example 7, 1-(1H-indazol-4-yl)-3-[(1R,3S)-3-phenylcyclopentyl]urea]: the pIC50 in experiment [1] (setting [3]) and in experiment [1] (Table 2) was 8.05 throughout. Also, the remaining activity at 37.5 µM in experiment [2] (Table 1) and in experiment [2] (Table 2) was 32% in each case. In addition, the “% Increase in tail withdrawal latency” value with Sprague-Dawley rats is “−”.

Consider `Cc1cc2c(NC(=O)N[C@@H]3CC[C@@H](c4ccccc4)C3)c(F)ccc2cn1` [Example 20, 1-(6-fluoro-3-methylisoquinolin-5-yl)-3-[(1R,3R)-3-phenylcyclopentyl]urea], for which the pIC50 in experiment [1] (setting [3]) and in experiment [1] (Table 2) was 8.30 throughout. Besides, the remaining activity at 37.5 µM in experiment [2] (Table 1) and in experiment [2] (Table 2) was 32% in each case. The “% Increase in tail withdrawal latency” value in the experiment with Sprague-Dawley rats is “−”.

For the compound `Cc1cc2c(NC(=O)N[C@H]3CC[C@@H](c4ccccc4)C3)c(F)ccc2cn1` [Example 27, 1-(6-fluoro-3-methylisoquinolin-5-yl)-3-[(1S,3R)-3-phenylcyclopentyl]urea], the pIC50 in experiment [1] (setting [3]) was 8.15; in experiment [1] (Table 2), 8.22. In addition, the remaining activity at 37.5 µM in experiment [2] (Table 1) and in experiment [2] (Table 2) was 60% throughout. Also, in the experiment with Sprague-Dawley rats, the “% Increase in tail withdrawal latency” value is reported as “−”.

On to `Cc1cc2c(NC(=O)N[C@@H]3CC[C@H](c4nc(C)cs4)C3)c(F)ccc2cn1` [Example 132, 1-(6-fluoro-3-methylisoquinolin-5-yl)-3-[(1R,3S)-3-(4-methyl-1,3-thiazol-2-yl)cyclopentyl]urea], for which the pIC50 in experiment [1] (setting [3]) was 6.49. In experiment [2] (Table 1), the remaining activity at 37.5 µM is 40%.

For the compound `Cc1cc2c(NC(=O)N[C@@H]3CC[C@@H](c4nc(C)cs4)C3)c(F)ccc2cn1` [Example 133, 1-(6-fluoro-3-methylisoquinolin-5-yl)-3-[(1R,3R)-3-(4-methyl-1,3-thiazol-2-yl)cyclopentyl]urea], the pIC50 in experiment [1] (setting [3]) was 6.29. The remaining activity at 37.5 µM in experiment [2] (Table 1) came to 16%.

In the case of `Cc1cc2c(NC(=O)N[C@H]3CC[C@H](c4nc(C)cs4)C3)c(F)ccc2cn1` [Example 134, 1-(6-fluoro-3-methylisoquinolin-5-yl)-3-[(1S,3S)-3-(4-methyl-1,3-thiazol-2-yl)cyclopentyl]urea], in experiment [1] (setting [3]), the pIC50 was 6.81. Moreover, in experiment [2] (Table 1), the remaining activity at 37.5 µM turned out to be 36%.

For `Cc1cc2c(NC(=O)N[C@H]3CC[C@@H](c4nc(C)cs4)C3)c(F)ccc2cn1` [Example 135, 1-(6-fluoro-3-methylisoquinolin-5-yl)-3-[(1S,3R)-3-(4-methyl-1,3-thiazol-2-yl)cyclopentyl]urea], the pIC50 in experiment [1] (setting [3]) was 5.75. Moreover, the remaining activity at 37.5 µM in experiment [2] (Table 1) was 57%.

Consider `O=C(Nc1cccc2c(Cl)nccc12)N[C@@H]1CC[C@H](c2ccccc2)C1` [Example 136, 1-(1-chloroisoquinolin-5-yl)-3-[(1R,3S)-3-phenylcyclopentyl]urea], for which the pIC50 in experiment [1] (setting [3]) was less than 4.43. In experiment [2] (Table 1), the remaining activity at 37.5 µM stood at 46%.

For `O=C(Nc1cccc2[nH]ccc12)N[C@@H]1CC[C@H](c2ccccc2)C1` [Example 137, 1-(1H-indol-4-yl)-3-[(1R,3S)-3-phenylcyclopentyl]urea], in experiment [1] (setting [3]), the pIC50 was 7.00. In addition, in experiment [2] (Table 1), the remaining activity at 37.5 µM stood at 42%.

Turning to `O=C(Nc1cccc2c1CCCC2)N[C@@H]1CC[C@H](c2ccccc2)C1` [Example 138, 1-[(1R,3S)-3-phenylcyclopentyl]-3-(5,6,7,8-tetrahydronaphthalen-1-yl)urea], in experiment [1] (setting [3]), the pIC50 was 6.81. The remaining activity at 37.5 µM in experiment [2] (Table 1) turned out to be 0%.

As to `CC(C)Cc1cc2c(NC(=O)N[C@@H]3CC[C@H](c4ccccc4)C3)c(F)ccc2cn1` [Example 139, 1-[6-fluoro-3-(2-methylpropyl)isoquinolin-5-yl]-3-[(1R,3S)-3-phenylcyclopentyl]urea], the pIC50 in experiment [1] (setting [3]) is less than 4.43. The remaining activity at 37.5 µM in experiment [2] (Table 1) was 89%.

For the compound `CCc1cc2c(NC(=O)N[C@@H]3CC[C@H](c4ccccc4)C3)c(F)ccc2cn1` [Example 140, 1-(3-ethyl-6-fluoroisoquinolin-5-yl)-3-[(1R,3S)-3-phenylcyclopentyl]urea], in experiment [1] (setting [3]), the pIC50 was 5.02. In addition, in experiment [2] (Table 1), the remaining activity at 37.5 µM was determined as 90%.

As for `Cc1nc(N)cc2c(NC(=O)N[C@@H]3CC[C@H](c4ccccc4)C3)cccc12` [Example 141, 1-(3-amino-1-methylisoquinolin-5-yl)-3-[(1R,3S)-3-phenylcyclopentyl]urea], the negative logarithm of the IC50 (pIC50) in experiment [1] (setting [3]) is less than 4.43. Moreover, the remaining activity at 37.5 µM in experiment [2] (Table 1) amounted to 82%.

As to `O=C(Nc1ccc2c(c1)NC(=O)C(N1CCOCC1)C2)N[C@@H]1CC[C@H](c2ccccc2)C1` (stereo partly drawn) [Example 142, 1-[3-(morpholin-4-yl)-2-oxo-1,2,3,4-tetrahydroquinolin-7-yl]-3-[(1R,3S)-3-phenylcyclopentyl]urea], the pIC50 in experiment [1] (setting [3]) is 6.94. Also, the remaining activity at 37.5 µM in experiment [2] (Table 1) was determined as 66%.

In the case of `O=C(Nc1ccc2c(c1)NC(=O)C(N1CCCOCC1)C2)N[C@@H]1CC[C@H](c2ccccc2)C1` (stereo partly drawn) [Example 143, 1-[3-(1,4-oxazepan-4-yl)-2-oxo-1,2,3,4-tetrahydroquinolin-7-yl]-3-[(1R,3S)-3-phenylcyclopentyl]urea], in experiment [1] (setting [3]), the pIC50 is 6.84. Besides, in experiment [2] (Table 1), the remaining activity at 37.5 µM stood at 24%.

In the case of `COCCN(C)C1Cc2ccc(NC(=O)N[C@@H]3CC[C@H](c4ccccc4)C3)cc2NC1=O` (stereo partly drawn) [Example 144, 1-{3-[(2-methoxyethyl)(methyl)amino]-2-oxo-1,2,3,4-tetrahydroquinolin-7-yl}-3-[(1R,3S)-3-phenylcyclopentyl]urea], the pIC50 in experiment [1] (setting [3]) was less than 4.43. Further, the remaining activity at 37.5 µM in experiment [2] (Table 1) is 62%.

For the compound `CN1CCOc2ccc(NC(=O)N[C@@H]3CC[C@H](c4ccccc4)C3)cc21` [Example 145, 1-(4-methyl-3,4-dihydro-2H-1,4-benzoxazin-6-yl)-3-[(1R,3S)-3-phenylcyclopentyl]urea], the pIC50 in experiment [1] (setting [3]) was 6.21. In addition, the remaining activity at 37.5 µM in experiment [2] (Table 1) was 91%.

As for `O=C(Nc1ccc2c(c1)NCCO2)N[C@@H]1CC[C@H](c2ccccc2)C1` [Example 146, 1-(3,4-dihydro-2H-1,4-benzoxazin-6-yl)-3-[(1R,3S)-3-phenylcyclopentyl]urea], the pIC50 in experiment [1] (setting [3]) was less than 4.43. Besides, the remaining activity at 37.5 µM in experiment [2] (Table 1) was 39%.

`CC(=O)Nc1nc2c(Oc3cc(-c4ccc(C(F)(F)F)cc4)ncn3)cccc2s1` [H, reference compound]: the “hTRPV1 H+ (max % remain)” value in experiment [2] (Table 2) is 10%. The change in vivo at 100 µmol/kg with Sprague-Dawley rats (setting [4]) was greater than 25%.

Turning to `CC(C)(C)c1ccc(Nc2ncnc3cc(-c4ncccc4C(F)(F)F)ccc23)cc1` [I, reference compound], the remaining activity at 37.5 µM in experiment [2] (Table 2) was 1%. The change in vivo at 100 µmol/kg in the experiment with Sprague-Dawley rats (setting [4]) was greater than 25%.

In the case of `CC(C)(C)c1ccc2c(c1)CC[C@H]2NC(=O)Nc1cccc2[nH]ncc12` [J, reference compound], the remaining activity at 37.5 µM in experiment [2] (Table 2) is 1%. For the same compound, the change in vivo at 100 µmol/kg with Sprague-Dawley rats (setting [4]) was greater than 25%.

As to `Cc1nc(Nc2cccc3c2C[C@H](O)CC3)oc1-c1ccc(C(F)(F)F)cc1` [K, reference compound], the remaining activity at 37.5 µM in experiment [2] (Table 2) was 3%. For the same compound, the change in vivo at 100 µmol/kg in the experiment on Sprague-Dawley rats (setting [4]) was greater than 25%.

Regarding `Cc1cccnc1N1CC=C(C(=O)Nc2ccc(S(=O)(=O)C(F)(F)F)cc2)CC1` [L, reference compound], the remaining activity at 37.5 µM in experiment [2] (Table 2) worked out at 2%. Further, the change in vivo at 100 µmol/kg in the experiment on Sprague-Dawley rats (setting [4]) was greater than 25%.

For the compound `CN1CC[C@]23c4c5ccc(O)c4O[C@H]2[C@@H](O)C=C[C@H]3[C@H]1C5` [Morphine, reference compound], the change in vivo at 6 mg/kg in the experiment on Sprague-Dawley rats (Rattus norvegicus, ip, read-out: % Increase in tail withdrawal latency) is greater than 25%.
